{
  "source": "patent US20090156629A1",
  "about": "“INDENOISOQUINOLINE-RELEASABLE POLYMER CONJUGATES” (Enzon Pharmaceuticals, Inc., priority 2006, published 2009)",
  "key": {"[1]": {"tested_on": "standard panel of 12 tumor cell lines (NCI-H23, NCI-H522, MDA-MB-231, MDA-MB-435, SW-620, COLO 205, LOX, UACC-62, OVCAR-3, OVCAR-5, U251 and SF-295)", "assay": "In vivo hollow fiber assay (HFA)", "set-up": "species or system mice", "settings": "out of 48; NSC 706744 at 100 and 150 mg/kg; conjugates at 12 and 18 (20k) or 9 and 12 (40k) mg/kg/dose IndQ equivalent", "protocol": "A standard panel of 12 tumor cell lines is used for routine hollow fiber screening. These include NCI-H23, NCI-H522, MDA-MB-231, MDA-MB-435, SW-620, COLO 205, LOX, UACC-62, OVCAR-3, OVCAR-5, U251 and SF-295. A total of 3 different tumor lines are prepared for each experiment so that each mouse receives 3 intraperitoneal implants (1 of each tumor line) and 3 subcutaneous implants (1 of each tumor line). Each compound tested is administered by intraperitoneal injection at 2 dose levels. The percent net growth for each cell line in each treatment group is calculated and compared to the percent net growth in the vehicle treated controls. A 50% or greater reduction in percent net growth in the treated samples compared to the vehicle control samples is considered a positive result. […] A compound is considered for xenograft testing if it has a combined ip+sc score of 20 or greater, a sc score of 8 or greater, or produces cell death of any cell line at either dose level evaluated.\nThe in vivo hollow fiber assay (HFA) in mice was conducted per previously published methods using the 20 k ΔPEG-RNL9-IndQ at equivalent IndQ active doses of 12 and 18 mg/kg/dose and 40 k ΔPEG-RNL9-IndQ at equivalent IndQ active doses of 9 and 12 mg/kg/dose. For comparison, NSC 706744 (native or unmodified) was evaluated at doses of 100 and 150 mg/kg/dose which are the highest doses routinely tested."}, "[2]": {"tested_on": "standard panel of 12 tumor cell lines (NCI-H23, NCI-H522, MDA-MB-231, MDA-MB-435, SW-620, COLO 205, LOX, UACC-62, OVCAR-3, OVCAR-5, U251 and SF-295)", "settings": "historic data for comparison; cited from earlier work"}},
  "data": [
    {"molecule": "COc1cc2c3c(n(CCCNCCO)c(=O)c2cc1OC)-c1cc2c(cc1C3=O)OCO2", "note": "[NSC 706744]", "values": [
      {"measurement": "score in IP fibers", "setting": "[1]", "result": "6/48"},
      {"measurement": "score in SC fibers", "setting": "[1]", "result": "6/48"}
    ]},
    {"molecule": "CC(=O)O[C@H]1C(=O)[C@@]2(C)[C@H]([C@H](OC(=O)c3ccccc3)[C@]3(O)C[C@H](OC(=O)[C@H](O)[C@@H](NC(=O)c4ccccc4)c4ccccc4)C(C)=C1C3(C)C)[C@]1(OC(C)=O)CO[C@@H]1C[C@@H]2O", "note": "[Taxol]", "values": [
      {"measurement": "Activity", "setting": "[2]", "result": "Active"},
      {"measurement": "Cell Death", "setting": "[2]", "result": "Yes"},
      {"measurement": "IP + SC score", "setting": "[2]", "result": 42},
      {"measurement": "IP score", "setting": "[2]", "result": 36},
      {"measurement": "SC score", "setting": "[2]", "result": 6}
    ]}
  ]
}
